Assay results as given in patent US9409916B2, “Piperidinone carboxamide spirohydantoin CGRP receptor antagonists” (Merck Sharp & Dohme Corp., priority 2011, dated 2016).
pKi: −log10 of the molar value.

Target: T1, recombinant human CL receptor/RAMP1 (Homo sapiens, UniProt O60894+Q16602)
T1 construct: expressed in transfected cells; membranes
Assay: Recombinant receptor binding assay (125I-hCGRP)
Details: membranes of HEK 293 cells expressing human CL receptor/RAMP1, 10 pM 125I-hCGRP
Procedure: RECOMBINANT RECEPTOR: Human CL receptor (Genbank accession number L76380) was subcloned into the expression vector pIREShyg2 (BD Biosciences Clontech) as a 5′NheI and 3′ PmeI fragment. Human RAMP1 (Genbank accession number AJ001014) was subcloned into the expression vector pIRESpuro2 (BD Biosciences Clontech) as a 5′NheI and 3′NotI fragment. HEK 293 cells (human embryonic kidney cells; ATCC #CRL-1573) were cultured in DMEM with 4.5 g/L glucose, 1 mM sodium pyruvate and 2 mM glutamine supplemented with 10% fetal bovine serum (FBS), 100 units/mL penicillin and 100 μg/mL streptomycin, and maintained at 37° C. and 95% humidity. Cells were subcultured by treatment with 0.25% trypsin with 0.1% EDTA in HBSS. Stable cell line generation was accomplished by co-transfecting 10 μg of DNA with 30 μg Lipofectamine 2000 (Invitrogen) in 75 cm^2 flasks. CL receptor and RAMP1 expression constructs were co-transfected in equal amounts. Twenty-four hours after transfection the cells were diluted and selective medium (growth medium+300 μg/mL hygromycin and 1 μg/mL puromycin) was added the following day. A clonal cell line was generated by single cell deposition utilizing a FACS Vantage SE (Becton Dickinson). Growth medium was adjusted to 150 μg/mL hygromycin and 0.5 μg/mL puromycin for cell propagation.
RECOMBINANT RECEPTOR BINDING ASSAY: Cells expressing recombinant human CL receptor/RAMP1 were washed with PBS and harvested in harvest buffer containing 50 mM HEPES, 1 mM EDTA and Complete™ protease inhibitors (Roche). The cell suspension was disrupted with a laboratory homogenizer and centrifuged at 48,000 g to isolate membranes. The pellets were resuspended in harvest buffer plus 250 mM sucrose and stored at −70° C. For binding assays, 20 μg of membranes were incubated in 1 mL binding buffer (10 mM HEPES, pH 7.4, 5 mM MgCl2, and 0.2% BSA) for 3 h at room temperature containing 10 pM ^125I-hCGRP (GE Healthcare) and antagonist. The assay was terminated by filtration through 96-well GFB glass fiber filter plates (PerkinElmer) that had been blocked with 0.05% polyethyleneimine. […]

T1 sequence (Q16602 23-461): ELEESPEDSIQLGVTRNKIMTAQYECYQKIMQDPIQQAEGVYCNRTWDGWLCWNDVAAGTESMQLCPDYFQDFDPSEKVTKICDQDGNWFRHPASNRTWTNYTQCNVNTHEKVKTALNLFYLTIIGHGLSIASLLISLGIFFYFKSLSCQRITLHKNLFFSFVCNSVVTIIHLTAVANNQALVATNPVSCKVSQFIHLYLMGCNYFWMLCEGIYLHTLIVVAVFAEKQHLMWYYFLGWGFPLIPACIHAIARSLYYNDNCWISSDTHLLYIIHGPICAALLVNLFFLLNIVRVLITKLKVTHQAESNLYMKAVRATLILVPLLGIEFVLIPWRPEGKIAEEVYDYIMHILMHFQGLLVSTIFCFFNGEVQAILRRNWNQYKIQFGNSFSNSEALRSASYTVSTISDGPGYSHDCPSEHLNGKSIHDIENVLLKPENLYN
T1 sequence (O60894 27-148): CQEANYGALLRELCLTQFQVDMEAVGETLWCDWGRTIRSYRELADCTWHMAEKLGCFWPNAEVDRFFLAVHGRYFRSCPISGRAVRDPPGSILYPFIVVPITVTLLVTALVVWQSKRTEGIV

Structure (SMILES)	pKi
C[C@@H]1[C@H](c2c(F)c(F)cc(F)c2F)C[C@H](NC(=O)c2cnc3c(c2)C[C@@]2(C3)C(=O)NC(=O)N2C)C(=O)N1CC(F)(F)F [Example 2, (6R)-3′-Methyl-N-[(3S,5S,6R)-6-methyl-2-oxo-1-(2,2,2-trifluoroethyl)-5-(2,3,5,6-tetrafluorophenyl)piperidin-3-yl]-2′,5′-dioxo-5,7-dihydrospiro[cyclopenta[b]pyridine-6,4′-imidazolidine]-3-carboxamide]	10.23
C[C@@H]1[C@H](c2cc(F)cc(F)c2F)C[C@H](NC(=O)c2cnc3c(c2)C[C@@]2(C3)C(=O)NC(=O)N2C)C(=O)N1CC(F)(F)F [Example 3]	9.55
C[C@@H]1[C@H](c2c(F)ccc(F)c2F)C[C@H](NC(=O)c2cnc3c(c2)C[C@@]2(C3)C(=O)NC(=O)N2C)C(=O)N1CC(F)(F)F [Example 1, (6R)-3′-Methyl-N-[(3S,5S,6R)-6-methyl-2-oxo-1-(2,2,2-trifluoroethyl)-5-(2,3,6-trifluorophenyl)piperidin-3-yl]-2′,5′-dioxo-5,7-dihydrospiro[cyclopenta[b]pyridine-6,4′-imidazolidine]-3-carboxamide]	10.21
